The values below come from patent US4562199A, “Imidazole derivatives, compositions and use” (priority 1983, dated 1985).

Where a name gives a salt, the structure may show the parent alone.

For this assay, the target named is T1, Thromboxane A2 Synthetase (Equus caballus, UniProt A0A9L0T8T9).
T1 construct: [1-14C]arachidonic acid substrate, TXB2 by TLC
T1 sequence (A0A9L0T8T9 2-534): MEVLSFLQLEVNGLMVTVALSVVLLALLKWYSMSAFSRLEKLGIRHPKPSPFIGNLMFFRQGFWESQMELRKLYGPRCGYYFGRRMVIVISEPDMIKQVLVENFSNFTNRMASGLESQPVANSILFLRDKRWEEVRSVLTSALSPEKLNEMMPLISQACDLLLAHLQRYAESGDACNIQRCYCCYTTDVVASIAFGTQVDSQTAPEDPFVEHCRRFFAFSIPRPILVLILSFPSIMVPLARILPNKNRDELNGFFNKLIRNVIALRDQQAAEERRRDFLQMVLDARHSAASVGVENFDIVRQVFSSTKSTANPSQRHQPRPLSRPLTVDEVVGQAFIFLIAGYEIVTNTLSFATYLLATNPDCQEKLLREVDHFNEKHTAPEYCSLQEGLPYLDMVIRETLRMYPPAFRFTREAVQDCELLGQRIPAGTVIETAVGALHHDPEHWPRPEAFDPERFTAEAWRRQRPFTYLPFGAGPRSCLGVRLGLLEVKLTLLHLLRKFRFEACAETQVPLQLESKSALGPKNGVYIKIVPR
Briefly: Determination of Thromboxane A2 Synthetase Inhibitory Activity. Format: biochemical. The conditions noted are these: lysed platelets from horse PRP; [1-14C]-arachidonic acid; 3 min at 37° C.; Tris buffer pH 7.5; read-out: ED50 (concentration of active compound required to reduce the enzyme activity by 50%) (converted). The protocol:
The active compound was dissolved in a suitable solvent at a concentration of 5 mg/ml, and 20 μl added to 0.8 ml of 100 mM Tris buffer (pH 7.5).
The platelets from 5 ml of horse PRP were centrifuged and resuspended in 100 μl of Tris buffer. After lysis by sonication or freeze thawing, the platelet suspension was added to the solution of active compound and equilibrated for 5 min at room temperature. Then 300 ng (50 nCi) of [1-^14 -C]-arachidonic acid, dissolved in 100 μl Tris buffer, was added and the mixture incubated for 3 min at 37° C.
The reaction was stopped with 50 μl 2N HCl and the product extracted with 1.5 volumes ethyl acetate by whirling for 30 seconds. 1 ml saturated NaCl was added to the aqueous phase to prevent emulsion formation. The organic layer was removed, dried under N2 and the products redissolved in 50 μl chloroform/methanol mixture for quantitative spotting onto a TLC plate, and subsequent analysis.
The plate was developed in chloroform, methanol, acetic acid, water (90:8:1:0.8), dried and then visualised by autoradiography for 2-3 days.
The concentration of active compound required to reduce the enzyme activity by 50% (ED50) was established.
As to `O=C(O)c1ccc(Cn2ccnc2)c(Cl)c1` [Example 1, 1-(4-Carboxy-2-chlorobenzyl)imidazole hydrochloride], the IC50 was 24.2 µM.

With `CCOC(=O)/C=C/c1ccc(Cn2ccnc2)c(Cl)c1` [Example 2, Ethyl (E)-3-[3-chloro-4-(imidazol-1-ylmethyl)phenyl]prop-2-enoate], the IC50 is 1.72 µM.

`O=C(O)/C=C/c1ccc(Cn2ccnc2)c(Cl)c1` [Example 3, (E)-3-[3-Chloro-4-(imidazol-1-ylmethyl)phenyl]prop-2-enoic acid hydrochloride]: the IC50 is 0.167 µM.

Regarding `O=C(O)CCc1ccc(Cn2ccnc2)c(Cl)c1` [Example 4, 3-[3-Chloro-4-(imidazol-1-ylmethyl)phenyl]propanoic acid hydrochloride], the IC50 was 0.266 µM.

On to `O=C(O)C=Cc1ccc(Cn2ccnc2)c(Br)c1` [Example 6, 3-[3-Bromo-4-(imidazol-1-ylmethyl)phenyl]prop-2-enoic acid hydrochloride hydrate], for which the IC50 is 0.0415 µM.

For `O=C(O)c1ccc(C=CCn2ccnc2)cc1Cl` [Example 10, 1-[3-(4-Carboxy-3-chlorophenyl)prop-2-enyl]imidazole hydrochloride hemihydrate], the IC50 was 1.33 µM.
